Assay results from ChEMBL document CHEMBL1141727, “Isolation and cytotoxic evaluation of marine sponge-derived norterpene peroxides” (J Nat Prod, 1998).

Legend:
[1] = tested on: CCRF-CEM; experiment: Growth inhibition of human CCRF-CEM cells; assay type: functional
[2] = tested on: HL-60(TB); experiment: Growth inhibition of human HL-60(TB) cells; assay type: functional
[3] = tested on: K562; experiment: Growth inhibition of human K562 cells; assay type: functional
[4] = tested on: MOLT-4; experiment: Growth inhibition of human MOLT4 cells; assay type: functional
[5] = Growth inhibition of human […] cells; assay type: functional
[6] = tested on: SR; experiment: Growth inhibition of human SR cells; assay type: functional
[7] = tested on: A549; experiment: Growth inhibition of human A549 cells; assay type: functional
[8] = tested on: EKVX; experiment: Growth inhibition of human EKVX cells; assay type: functional
[9] = tested on: HOP-62; experiment: Growth inhibition of human HOP62 cells; assay type: functional
[10] = tested on: HOP-92; experiment: Growth inhibition of human HOP92 cells; assay type: functional
[11] = tested on: NCI-H23; experiment: Growth inhibition of human NCI-H23 cells; assay type: functional
[12] = tested on: NCI-H322M; experiment: Growth inhibition of human NCI-H322M cells; assay type: functional
[13] = tested on: NCI-H460; experiment: Growth inhibition of human NCI-H460 cells; assay type: functional
[14] = tested on: NCI-H522; experiment: Growth inhibition of human NCI-H522 cells; assay type: functional
[15] = tested on: COLO 205; experiment: Growth inhibition of human COLO205 cells; assay type: functional
[16] = tested on: HCC 2998; experiment: Growth inhibition of human HCC2998 cells; assay type: functional
[17] = tested on: HCT-116; experiment: Growth inhibition of human HCT116 cells; assay type: functional
[18] = tested on: HCT-15; experiment: Growth inhibition of human HCT15 cells; assay type: functional
[19] = tested on: HT-29; experiment: Growth inhibition of human HT-29 cells; assay type: functional
[20] = tested on: KM12; experiment: Growth inhibition of human KM12 cells; assay type: functional
[21] = tested on: SW-620; experiment: Growth inhibition of human SW620 cells; assay type: functional
[22] = tested on: SF-268; experiment: Growth inhibition of human SF268 cells; assay type: functional
[23] = tested on: SF-295; experiment: Growth inhibition of human SF295 cells; assay type: functional
[24] = tested on: SF-539; experiment: Growth inhibition of human SF539 cells; assay type: functional
[25] = tested on: SNB-19; experiment: Growth inhibition of human SNB19 cells; assay type: functional
[26] = tested on: SNB-75; experiment: Growth inhibition of human SNB75 cells; assay type: functional
[27] = tested on: U-251; experiment: Growth inhibition of human U251 cells; assay type: functional
[28] = tested on: LOX IMVI; experiment: Growth inhibition of human LOXIMVI cells; assay type: functional
[29] = tested on: Malme-3M; experiment: Growth inhibition of human MALME-3M cells; assay type: functional
[30] = tested on: M14; experiment: Growth inhibition of human M14 cells; assay type: functional
[31] = tested on: SK-MEL-2; experiment: Growth inhibition of human SK-MEL-2 cells; assay type: functional
[32] = tested on: SK-MEL-28; experiment: Growth inhibition of human SK-MEL-28 cells; assay type: functional
[33] = tested on: SK-MEL-5; experiment: Growth inhibition of human SK-MEL-5 cells; assay type: functional
[34] = tested on: UACC-257; experiment: Growth inhibition of human UACC257 cells; assay type: functional
[35] = tested on: UACC-62; experiment: Growth inhibition of human UACC62 cells; assay type: functional
[36] = tested on: IGROV-1; experiment: Growth inhibition of human IGROV1 cells; assay type: functional
[37] = tested on: OVCAR-3; experiment: Growth inhibition of human OVCAR-3 cells; assay type: functional
[38] = tested on: OVCAR-4; experiment: Growth inhibition of human OVCAR4 cells; assay type: functional
[39] = tested on: OVCAR-5; experiment: Growth inhibition of human OVCAR5 cells; assay type: functional
[40] = tested on: OVCAR-8; experiment: Growth inhibition of human OVCAR8 cells; assay type: functional
[41] = tested on: SK-OV-3; experiment: Growth inhibition of human SKOV3 cells; assay type: functional
[42] = tested on: 786-0; experiment: Growth inhibition of human 786-0 cells; assay type: functional
[43] = tested on: ACHN; experiment: Growth inhibition of human ACHN cells; assay type: functional
[44] = tested on: CAKI-1; experiment: Growth inhibition of human Caki1 cells; assay type: functional
[45] = tested on: RXF 393; experiment: Growth inhibition of human […] cells; assay type: functional
[46] = tested on: SN12C; experiment: Growth inhibition of human SN12C cells; assay type: functional
[47] = tested on: TK-10; experiment: Growth inhibition of human TK10 cells; assay type: functional
[48] = tested on: UO-31; experiment: Growth inhibition of human UO31 cells; assay type: functional
[49] = tested on: PC-3; experiment: Growth inhibition of human PC3 cells; assay type: functional
[50] = tested on: DU-145; experiment: Growth inhibition of human DU145 cells; assay type: functional
[51] = tested on: MCF7; experiment: Growth inhibition of human MCF7 cells; assay type: functional
[52] = Growth inhibition of human MCF7/ADR resistant cells; assay type: functional; details: NCI/ADR-RES
[53] = tested on: MDA-MB-231; experiment: Growth inhibition of human MDA-MB-231 cells; assay type: functional
[54] = Growth inhibition of human Hs 578T cells; assay type: functional
[55] = tested on: MDA-MB-435; experiment: Growth inhibition of human MDA-MB-435 cells; assay type: functional
[56] = tested on: MDA-N; experiment: Growth inhibition of human MDA-N cells; assay type: functional
[57] = tested on: BT-549; experiment: Growth inhibition of human BT549 cells; assay type: functional
[58] = tested on: T47D; experiment: Growth inhibition of human T47D cells; assay type: functional
[59] = tested on: L1210; experiment: Growth inhibition of mouse L1210 cells assessed as zone units at 50 ug/disk by disk diffusion agar colony formation assay; assay type: functional
[60] = tested on: P388; experiment: Growth inhibition of mouse P388 cells assessed as zone units at 50 ug/disk by disk diffusion agar colony formation assay; assay type: functional
[61] = tested on: MC-38; experiment: Growth inhibition of mouse C38 cells assessed as zone units at 50 ug/disk by disk diffusion agar colony formation assay; assay type: functional
[62] = Growth inhibition of mouse M17/ADR cells assessed as zone units at 50 ug/disk by disk diffusion agar colony formation assay; assay type: functional
[63] = tested on: CX-1; experiment: Growth inhibition of human CX-1 cells assessed as zone units at 50 ug/disk by disk diffusion agar colony formation assay; assay type: functional
[64] = tested on: Mus musculus; experiment: Toxicity in mouse at 424 mg/kg, iv in split dose; assay type: organism-based; set-up: dose 424 mg/kg, route intravenous; details: in vivo
[65] = tested on: NCI-H226; experiment: Growth inhibition of human NCI-H226 cells; assay type: functional
[66] = tested on: A498; experiment: Growth inhibition of human A498 cells; assay type: functional
[67] = Growth inhibition of human H125 cells assessed as zone units at 50 ug/disk by disk diffusion agar colony formation assay; assay type: functional

Compound: COC(=O)[C@H](C)[C@H]1CC[C@@](C)(CCC2=C(C)CCCC2(C)C)OO1 [NUAPAPUIN A METHYL ESTER]
- GI50 [1]: 19.4 µM
- GI50 [2]: > 5 µM
- GI50 [3]: 14.3 µM
- GI50 [4]: > 5 µM
- GI50 [5]: > 25 µM
- GI50 [6]: > 25 µM
- GI50 [7]: > 5 µM
- GI50 [8]: > 25 µM
- GI50 [9]: > 25 µM
- GI50 [10]: > 25 µM
- GI50 [11]: > 25 µM
- GI50 [12]: > 25 µM
- GI50 [13]: > 25 µM
- GI50 [14]: > 16.1 µM
- GI50 [15]: > 25 µM
- GI50 [16]: > 25 µM
- GI50 [17]: > 25 µM
- GI50 [18]: > 25 µM
- GI50 [19]: > 25 µM
- GI50 [20]: > 5 µM
- GI50 [21]: > 25 µM
- GI50 [22]: > 25 µM
- GI50 [23]: > 25 µM
- GI50 [24]: > 25 µM
- GI50 [25]: > 25 µM
- GI50 [26]: > 25 µM
- GI50 [27]: > 25 µM
- GI50 [28]: > 5 µM
- GI50 [29]: > 25 µM
- GI50 [30]: > 25 µM
- GI50 [31]: > 25 µM
- GI50 [32]: > 25 µM
- GI50 [33]: > 25 µM
- GI50 [34]: > 25 µM
- GI50 [35]: > 25 µM
- GI50 [36]: > 5 µM
- GI50 [37]: > 25 µM
- GI50 [38]: > 25 µM
- GI50 [39]: > 25 µM
- GI50 [40]: > 25 µM
- GI50 [41]: > 25 µM
- GI50 [42]: > 25 µM
- GI50 [43]: 25 µM
- GI50 [44]: > 25 µM
- GI50 [45]: > 25 µM
- GI50 [46]: > 25 µM
- GI50 [47]: > 25 µM
- GI50 [48]: > 23.7 µM
- GI50 [49]: > 25 µM
- GI50 [50]: > 25 µM
- GI50 [51]: > 25 µM
- GI50 [52]: > 25 µM
- GI50 [53]: > 25 µM
- GI50 [54]: > 25 µM
- GI50 [55]: > 25 µM
- GI50 [56]: > 25 µM
- GI50 [57]: > 5 µM
- GI50 [58]: > 25 µM
- Activity [59]: 400 Zone units
- Activity [60]: 400 Zone units
- Activity [61]: 700 Zone units
- Activity [62]: 400 Zone units
- Activity [63]: 310 Zone units
- Activity [64]: Non-toxic

Compound: C=C1CCCC(C)(C)C1CC[C@]1(C)CC[C@H]([C@@H](C)C(=O)OC)OO1 (some centres undefined) [NUAPAPUIN B]
- GI50 [1]: 1.27 µM
- GI50 [2]: 1.6 µM
- GI50 [3]: 6.38 µM
- GI50 [4]: 7.04 µM
- GI50 [5]: 4.04 µM
- GI50 [6]: 2.17 µM
- GI50 [7]: 0.64 µM
- GI50 [8]: 7.9 µM
- GI50 [9]: 0.71 µM
- GI50 [10]: 0.76 µM
- GI50 [65]: 6.17 µM
- GI50 [11]: 3.54 µM
- GI50 [12]: 6.9 µM
- GI50 [13]: 0.91 µM
- GI50 [14]: 3.05 µM
- GI50 [15]: 4.54 µM
- GI50 [16]: 3.68 µM
- GI50 [17]: 8.14 µM
- GI50 [18]: 13.1 µM
- GI50 [19]: 0.38 µM
- GI50 [20]: 0.4 µM
- GI50 [21]: 7.53 µM
- GI50 [22]: 3.19 µM
- GI50 [23]: 4.42 µM
- GI50 [24]: 6.25 µM
- GI50 [25]: 5.47 µM
- GI50 [26]: 2.67 µM
- GI50 [27]: 2.91 µM
- GI50 [28]: 0.47 µM
- GI50 [29]: 21 µM
- GI50 [30]: 6.43 µM
- GI50 [31]: 8.28 µM
- GI50 [32]: 20.6 µM
- GI50 [33]: 3.94 µM
- GI50 [34]: 16.3 µM
- GI50 [35]: 4.13 µM
- GI50 [36]: 0.5 µM
- GI50 [37]: 21.8 µM
- GI50 [38]: 4.01 µM
- GI50 [39]: 4.76 µM
- GI50 [40]: 5.76 µM
- GI50 [41]: 4.4 µM
- GI50 [42]: 0.27 µM
- GI50 [66]: 4.92 µM
- GI50 [43]: 0.48 µM
- GI50 [44]: 0.32 µM
- GI50 [45]: 2.62 µM
- GI50 [46]: 3.73 µM
- GI50 [47]: 4.21 µM
- GI50 [48]: 0.52 µM
- GI50 [49]: 3.63 µM
- GI50 [50]: 3.67 µM
- GI50 [51]: 18.4 µM
- GI50 [52]: 5.67 µM
- GI50 [53]: 757 µM
- GI50 [54]: 4.6 µM
- GI50 [55]: 4.34 µM
- GI50 [56]: 3.54 µM
- GI50 [57]: 4.95 µM
- GI50 [58]: 2.94 µM
- Activity [59]: 180 Zone units
- Activity [60]: 180 Zone units
- Activity [61]: 300 Zone units
- Activity [62]: 100 Zone units
- Activity [67]: 200 Zone units
